Source: patent US9150580B2, “Substituted imidazopyridines and the use thereof” (BAYER INTELLECTUAL PROPERTY GMBH, priority 2011, dated 2015)
Where a name gives a salt, the structure may show the parent alone.

What was measured:
[1] = tested on: aorta rings; assay: Vasorelaxant action in vitro (phenylephrine-contracted rabbit aorta rings); settings: Oryctolagus cuniculus, phenylephrine-induced contraction, organ bath 37° C., 0.1% DMSO, read-out: IC50 (concentration needed to reduce the magnitude of the control contraction by 50%)
Procedure: B-1. Vasorelaxant Action In Vitro
Rabbits are stunned by a blow to the neck and exsanguinated. The aorta is removed, freed from adhering tissue and divided into rings of a width of 1.5 mm. The rings are placed individually under an initial tension in 5 ml organ baths with Krebs-Henseleit solution which is at 37° C., is gassed with carbogen and has the following composition (in each case mM): sodium chloride 119; potassium chloride: 4.8; calcium chloride dihydrate: 1; magnesium sulfate heptahydrate: 1.4; potassium dihydrogenphosphate: 1.2; sodium bicarbonate: 25; glucose: 10. The contractile force is determined with Statham UC2 cells, amplified and digitalized using A/D transducers (DAS 1802 HC, Keithley Instruments Munich), and recorded in parallel on linear recorders. To obtain a contraction, phenylephrine is added to the bath cumulatively in increasing concentration. After several control cycles, the substance to be investigated is added in each further run in increasing dosage in each case, and the height of the contraction achieved is compared with the height of the contraction reached in the last preceding run. This is used to calculate the concentration needed to reduce the magnitude of the control value by 50% (IC50 value). The standard administration volume is 5 μl; the DMSO content in the bath solution corresponds to 0.1%.

[2] = target: T1, recombinant guanylate cyclase reporter cell line (Rattus norvegicus, UniProt P19686+P20595); assay: Effect on a recombinant guanylate cyclase reporter cell line; assay type: cell-based; settings: recombinant guanylate cyclase reporter cell line (Wunder et al. 2005)
T1 construct: expressed in transfected cells
T1 sequence (P19686 1-690): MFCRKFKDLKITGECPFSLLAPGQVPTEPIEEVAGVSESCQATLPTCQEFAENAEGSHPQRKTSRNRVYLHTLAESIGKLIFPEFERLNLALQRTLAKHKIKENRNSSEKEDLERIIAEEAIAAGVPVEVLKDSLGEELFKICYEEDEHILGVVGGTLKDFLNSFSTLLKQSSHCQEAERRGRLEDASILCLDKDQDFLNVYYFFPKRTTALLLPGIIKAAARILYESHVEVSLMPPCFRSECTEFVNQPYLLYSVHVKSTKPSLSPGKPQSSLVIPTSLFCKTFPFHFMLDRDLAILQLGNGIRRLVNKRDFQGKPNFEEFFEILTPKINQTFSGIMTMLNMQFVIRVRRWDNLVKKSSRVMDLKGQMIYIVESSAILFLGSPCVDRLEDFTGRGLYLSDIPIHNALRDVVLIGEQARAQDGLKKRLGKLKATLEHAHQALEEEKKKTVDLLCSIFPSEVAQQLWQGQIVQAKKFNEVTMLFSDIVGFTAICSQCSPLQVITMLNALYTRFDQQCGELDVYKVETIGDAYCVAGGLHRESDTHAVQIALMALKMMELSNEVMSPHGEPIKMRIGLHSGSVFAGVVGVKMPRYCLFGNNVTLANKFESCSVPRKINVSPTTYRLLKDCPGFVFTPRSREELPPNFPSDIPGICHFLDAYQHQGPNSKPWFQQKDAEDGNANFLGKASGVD
T1 sequence (P20595 1-619): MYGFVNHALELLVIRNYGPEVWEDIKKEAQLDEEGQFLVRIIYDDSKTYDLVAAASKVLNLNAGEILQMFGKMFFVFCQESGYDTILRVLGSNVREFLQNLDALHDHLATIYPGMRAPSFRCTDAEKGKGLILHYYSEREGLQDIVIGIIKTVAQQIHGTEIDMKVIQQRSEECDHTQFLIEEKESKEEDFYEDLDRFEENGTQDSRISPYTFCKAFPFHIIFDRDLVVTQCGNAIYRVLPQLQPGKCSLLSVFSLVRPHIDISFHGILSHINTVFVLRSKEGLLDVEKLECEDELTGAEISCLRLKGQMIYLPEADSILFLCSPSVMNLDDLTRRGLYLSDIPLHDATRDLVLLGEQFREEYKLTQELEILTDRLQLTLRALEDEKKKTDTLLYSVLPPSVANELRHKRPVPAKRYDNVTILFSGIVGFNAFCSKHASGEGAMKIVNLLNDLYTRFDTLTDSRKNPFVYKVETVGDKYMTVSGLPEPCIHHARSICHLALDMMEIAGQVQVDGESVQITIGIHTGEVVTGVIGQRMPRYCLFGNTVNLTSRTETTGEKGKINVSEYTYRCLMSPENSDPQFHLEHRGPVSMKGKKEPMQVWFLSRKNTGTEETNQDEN
Procedure: B-2. Effect on a Recombinant Guanylate Cyclase Reporter Cell Line
The cellular activity of the compounds according to the invention is determined using a recombinant guanylate cyclase reporter cell line, as described in F. Wunder et al., Anal. Biochem. 339, 104-112 (2005).

Compound | IC50 [1] | MEC (minimum effective concentration) [2]
Nc1nc(N)nc(-c2nc(Cc3ccccc3F)n3ncccc23)n1 [Example 1, 6-[7-(2-Fluorobenzyl)imidazo[1,5-b]pyridazin-5-yl]-1,3,5-triazine-2,4-diamine formate] | 130 nM | 0.03 µM
CCN(C(=O)OC)c1c(N)nc(-c2nc(Cc3ccccc3F)n3ncccc23)nc1N [Example 8, Methyl {4,6-diamino-2-[7-(2-fluorobenzyl)imidazo[1,5-b]pyridazin-5-yl]pyrimidin-5-yl}ethylcarbamate formate] | 152 nM | 0.1 µM
Nc1nc(-c2nc(Cc3ccccc3F)n3ncccc23)nc(N)c1NC(=O)OC1CCC1 [Example 11, Cyclobutyl {4,6-diamino-2-[7-(2-fluorobenzyl)imidazo[1,5-b]pyridazin-5-yl]pyrimidin-5-yl}carbamate formate] | 422 nM | 0.3 µM
COC(=O)N(Cc1cccc(F)c1)c1c(N)nc(-c2nc(Cc3ccccc3F)n3ncccc23)nc1N [Example 19, Methyl {4,6-diamino-2-[7-(2-fluorobenzyl)imidazo[1,5-b]pyridazin-5-yl]pyrimidin-5-yl}(3-fluorobenzyl)carbamate formate] | 81 nM | 0.1 µM

Further compounds by falling IC50 [1], results first:

IC50 [1] | MEC (minimum effective concentration) [2] | Compound
200 nM | 0.3 µM | CCOC(=O)Nc1c(N)nc(-c2nc(Cc3ccccc3F)n3ncccc23)nc1N [Example 5, Ethyl {4,6-diamino-2-[7-(2-fluorobenzyl)imidazo[1,5-b]pyridazin-5-yl]pyrimidin-5-yl}carbamate formate]
171 nM | 0.01 µM | COC(=O)N(Cc1ccccc1)c1c(N)nc(-c2nc(Cc3ccccc3F)n3ncccc23)nc1N [Example 15, Methyl benzyl{4,6-diamino-2-[7-(2-fluorobenzyl)imidazo[1,5-b]pyridazin-5-yl]pyrimidin-5-yl}carbamate formate]
